molecular target: alanyl aminopeptidases (APN) (Homo sapiens, UniProt P15144); test: Inhibition of alanyl aminopeptidase enzymatic activity, fluorogenic substrate (Ala)2-rhodamine 110; assay type: biochemical; details: Table 9, starred values = ID50; read-out: ID50 APN (values marked with *)
Experimental: The inhibition characteristics measured are referred to as IC-50 values or ID50 values (the latter marked with “*”) for said enzyme. The enzymatic activity was determined by means of the fluorogenic substrate/product (Ala)2-rhodamine 110.

Sequence of alanyl aminopeptidases (APN) (P15144 whole entry, species assumed): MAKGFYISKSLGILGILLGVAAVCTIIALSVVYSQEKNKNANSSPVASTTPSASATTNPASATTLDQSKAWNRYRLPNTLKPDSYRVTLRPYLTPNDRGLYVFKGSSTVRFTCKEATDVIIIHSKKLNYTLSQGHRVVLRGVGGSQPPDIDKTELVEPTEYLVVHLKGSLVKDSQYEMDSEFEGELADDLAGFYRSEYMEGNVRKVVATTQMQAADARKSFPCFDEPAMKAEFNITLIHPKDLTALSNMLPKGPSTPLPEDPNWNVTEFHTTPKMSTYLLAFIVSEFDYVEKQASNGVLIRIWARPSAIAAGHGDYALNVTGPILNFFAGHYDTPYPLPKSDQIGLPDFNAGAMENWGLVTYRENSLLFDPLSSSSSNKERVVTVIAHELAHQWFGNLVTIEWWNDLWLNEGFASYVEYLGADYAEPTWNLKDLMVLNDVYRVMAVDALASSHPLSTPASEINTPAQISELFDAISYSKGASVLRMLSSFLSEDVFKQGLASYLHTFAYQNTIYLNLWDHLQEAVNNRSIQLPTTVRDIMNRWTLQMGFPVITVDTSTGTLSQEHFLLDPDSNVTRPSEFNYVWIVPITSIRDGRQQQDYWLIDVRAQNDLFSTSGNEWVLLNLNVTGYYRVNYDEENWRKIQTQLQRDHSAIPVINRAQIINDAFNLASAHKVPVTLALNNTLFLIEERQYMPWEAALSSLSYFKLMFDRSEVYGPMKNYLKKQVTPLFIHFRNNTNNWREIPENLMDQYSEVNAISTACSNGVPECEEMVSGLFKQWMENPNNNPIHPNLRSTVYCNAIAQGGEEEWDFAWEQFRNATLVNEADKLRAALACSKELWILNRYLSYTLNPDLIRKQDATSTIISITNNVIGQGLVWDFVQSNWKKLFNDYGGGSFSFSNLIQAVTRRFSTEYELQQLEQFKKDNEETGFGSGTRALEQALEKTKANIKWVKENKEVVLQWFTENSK

IC50 [µM]	Structure (SMILES)
94.8	O=C(OCCN1CCCCC1)C1c2ccccc2Oc2ccccc21 [A9.117]
103	C#CCN1C(c2cnccn2)=NC(CC(C)C)C1C(=O)Nc1c(C)cccc1C (stereo not drawn) [A9.119]
117	COc1c(OCC(O)C(C)(C)O)ccc2c1N=C1OC=CC1C2OC (stereo not drawn) [A9.120]
134	CC(=O)Oc1ccc2c(=O)c(-c3cnn(-c4ccccc4)c3)c(C(F)(F)F)oc2c1OC(C)=O [A9.122]
186	CCCOC(=O)C(NC(=O)c1ccccc1)(N1CCOCC1)C(F)(F)F (stereo not drawn) [A9.125]
197	CC(C)Oc1ccc(/C=N/CCC2(c3ccccc3)CCOC(C)(C)C2)cc1 (stereo not drawn) [A9.126]
208	O=C(/C=C/c1ccco1)NCCCN1CCOCC1 [A9.127]
252	CC(C)N1CCN(Cc2ccccc2[N+](=O)[O-])CC1 [A9.128]

Structure (SMILES)	IC50 [µM]
Cc1cccc[n+]1OC(=O)N1CCCCC1 [A9.118]	96.7

same assay, conditions: Table 9, unstarred values; read-out: IC50APN

IC50 [µM]	Structure (SMILES)
125	CC1=C(C#N)C(=O)N(CCO)C(=O)/C1=C\c1ccc(-c2ccc(C)c(Cl)c2)o1 [A9.121]
138	NCCCNC(=O)C1Cc2ncn(Cc3ccccc3[N+](=O)[O-])c2CN1Cc1ccccn1 (stereo not drawn) [A9.123]

same assay, conditions: Table 10; read-out: IC50APN

IC50 [µM]	Structure (SMILES)
0.7	Brc1cc2c(cc1Br)OCCOCCOCCOCCOCCO2 [A10.001]
8	O=C(N/N=C\c1ccco1)c1ccc(S(=O)(=O)N2CCCCCC2)cc1 [A10.002]
8.1	COc1ccc(Cl)cc1C(=O)N/C(=C/c1ccco1)C(=O)N1CC2CC(C1)c1cccc(=O)n1C2 (stereo not drawn) [A10.003]
8.6	C/C(=N/O)c1ccc2c(c1)OCCOCCOc1cc(/C(C)=N\O)ccc1OCCOCCO2 [A10.004]
11	Cc1ccc(C(=O)N/C(=C\c2ccco2)C(=O)N2CC3CC(C2)c2cccc(=O)n2C3)cc1 (stereo not drawn) [A10.005]
11.8	Cc1ccc(C(=O)N/C(=C\c2ccco2)C(=O)N2CC3CC(C2)c2cccc(=O)n2C3)cc1C (stereo not drawn) [A10.006]
32.1	Cc1ccc(C(=O)N/C(=C\c2ccco2)C(=O)N2CCCN(C)CC2)cc1C [A10.007]
99.8	CC1CC(=O)N(C(=O)CCBr)c2ccc([N+](=O)[O-])cc2N1C(=O)CCBr (stereo not drawn) [A10.008]

same assay, conditions: Table 11; read-out: IC50APN

IC50 [µM]	Structure (SMILES)
7.6	CCN(CC)c1ccc(/C=C(\NC(=O)c2ccccc2)C(=O)N/N=C/c2ccc(O)c([N+](=O)[O-])c2)cc1 [A11.002]
7	O=C(Cc1ccc(Br)c2ccccc12)N/N=C/c1ccc([N+](=O)[O-])c(O)c1 [A11.003]
8.9	N#Cc1cc(N2CC3CC(C2)c2cccc(=O)n2C3)c([N+](=O)[O-])cc1C#N (stereo not drawn) [A11.004]
10.7	O=C(N/N=C(/CC(=O)c1cccs1)C(F)(F)F)c1cccc([N+](=O)[O-])c1 [A11.005]
10.8	Cc1ccc(C)c(NC(=O)C(=O)N/N=C/c2cc([N+](=O)[O-])ccc2O)c1 [A11.006]
11.4	CC(NC(=O)C(=O)N/N=C\c1cc([N+](=O)[O-])ccc1O)c1ccccc1 (stereo not drawn) [A11.007]
11.8	CN(C)CCCN1CCN(c2nc(N(C)CC(=O)O)c3ncn(Cc4ccc([N+](=O)[O-])cc4)c3n2)CC1 [A11.008]
12.1	CCN(CC)C(=O)c1cc([N+](=O)[O-])ccc1C(=O)O [A11.009]
15.6	CC(C)C/C=N/NC(=O)c1ccc([N+](=O)[O-])cc1Cl [A11.010]
16.3	O=[N+](O)CC(c1ccccc1)P(=O)(c1ccccc1)c1ccccc1 (stereo not drawn) [A11.011]
19.1	O=C(Cc1ccc([N+](=O)[O-])cc1)N1CCOCC1 [A11.012]
20.2	O=C(N/N=C/c1cc([N+](=O)[O-])ccc1O)c1ccc(O)cc1O [A11.013]
20.3	CC(=O)Oc1ccc([N+](=O)[O-])cc1/C=N/NC(=O)COc1cc(C)ccc1C(C)C [A11.014]
20.8	O=C1C=CC(=O)N1c1cc([N+](=O)[O-])ccc1F [A11.015]
23.3	O=C1c2cccc3c(Br)c([N+](=O)[O-])cc(c23)C(=O)N1c1cccc([N+](=O)[O-])c1 [A11.016]
23.6	O=C(Nc1ccc(O)cc1C(=O)O)c1cccc(N2C(=O)c3cccc4c([N+](=O)[O-])ccc(c34)C2=O)c1 [A11.017]
26.4	O=C1CNC(c2cccc([N+](=O)[O-])c2)N1O (stereo not drawn) [A11.018]
28.9	CCCCCCCSc1nnc2c(n1)CC(C(=O)c1ccccc1)=Nc1ccccc1-2 [A11.019]
29.3	C=CCN1C(=O)C(C#N)=C(C)/C(=C\c2ccc(-c3cc(C)c(C)cc3[N+](=O)[O-])o2)C1=O [A11.020]

IC50 [µM]	Structure (SMILES)
29.9	O=c1[nH]cc([N+](=O)[O-])cc1C(F)(F)F [A11.021]
30	CCOC(=O)C(C#N)c1c([N+](=O)[O-])c(=O)n(-c2ccccc2)c2ccccc12 (stereo not drawn) [A11.022]
31.1	O=C(CC1(O)CCCCC1)N/N=C/c1ccccc1[N+](=O)[O-] [A11.023]
32.8	CC(=O)N1CCOC1(C)c1ccc([N+](=O)[O-])cc1 (stereo not drawn) [A11.024]
33.2	NCCCCCC(=O)C[N+](=O)[O-] [A11.025]
36.8	O=[N+]([O-])c1ncn(CN2CCOCC2)n1 [A11.026]
37.4	O=C(Nc1ccc(F)cc1)c1ccc([NH+]([O-])O)o1 (stereo not drawn) [A11.027]
39.3	O=C(OCC1CCCO1)c1cc([N+](=O)[O-])cc([N+](=O)[O-])c1 (stereo not drawn) [A11.028]
45.4	O=C(N/N=C/c1cccc([N+](=O)[O-])c1)c1ccco1 [A11.029]
49.5	O=C(C[N+](=O)[O-])c1cc2occc2[nH]1 [A11.030]
54.2	O=C(N/N=C/c1cc(Br)ccc1OC(=O)c1ccc([N+](=O)[O-])cc1)/C(=C\c1ccc2c(c1)OCO2)NC(=O)c1ccccc1 [A11.031]
60	O=C(CNC(=O)c1ccccc1F)N/N=C/c1ccc([N+](=O)[O-])o1 [A11.032]
99.8	CC1CC(=O)N(C(=O)CCBr)c2ccc([N+](=O)[O-])cc2N1C(=O)CCBr (stereo not drawn) [A11.033]
62.4	O=C(Nc1ccccc1F)c1ccc([N+](=O)[O-])o1 [A11.034]
222	COc1cccc(C(=O)NCC(=O)N/N=C/c2ccc([N+](=O)[O-])o2)c1 [A11.035]
238	COC(=O)c1cc(C(=O)NC2CCSC2=O)cc([N+](=O)[O-])c1 (stereo not drawn) [A11.036]
244	O=C(N/C(=C\c1cccc([N+](=O)[O-])c1)C(=O)N(CCO)CCO)c1ccco1 [A11.037]
422	C/C(=N\NC(=O)COc1ccc(C)cc1[NH+]([O-])O)c1ccco1 (stereo not drawn) [A11.038]
5.8	O=C(N/N=C/c1cc(Cl)cc([N+](=O)[O-])c1O)c1ccccc1O [A11.039]

Structure (SMILES)	IC50 [µM]
N/C(=N\[N+](=O)[O-])N/N=C/c1ccco1 [A11.001]	7.6

same assay, conditions: Table 12; read-out: IC50APN

IC50 [µM]	Structure (SMILES)
0.7	Brc1cc2c(cc1Br)OCCOCCOCCOCCOCCO2 [A12.002]
2.7	CCOC(=O)c1ccc(-c2ccc(/C=C3\C(=O)N(CCO)C(=O)C(C#N)=C3C)o2)cc1 [A12.004]
5	COC(=O)c1ccc(-c2ccc(/C=C3\C(=O)N(CCCO)C(=O)C(C#N)=C3C)o2)cc1 [A12.005]
5.6	Cc1cc(Cl)ccc1OCCCC(=O)NO [A12.006]
6.3	COC(=O)c1cccc(-c2ccc(/C=C3\C(=O)N(CCO)C(=O)C(C#N)=C3C)o2)c1 [A12.007]
6.3	O=C(CCOC(c1ccccc1)c1ccc(Br)cc1)NO (stereo not drawn) [A12.008]
6.4	O=C(COc1ccc(Br)cc1)NO [A12.009]
6.7	CCc1cccc(CC)c1NC(=S)N/N=C1\C(=O)N(CN2CC(C)CC(C)C2)c2ccccc21 (stereo not drawn) [A12.010]

From patent publication US20070037752A1, “Novel alanyl-amino peptidase inhibitors for functionally influencing different cells and treating immunological, inflammatory, neuronal, and other diseases” (priority 2003, published 2007)
